Laboratory results published in publication PMC12609530, “Capillary Electrophoresis as a Useful Tool to Separate Isomeric Opioid–Neurotensin Hybrid Peptides” (Molecules, 2025).
Where two headings read alike, the source gives them in different places. Square brackets hold non-standard residues; d marks the D form. Peptide text beside a SMILES is read from it. Dmt = Cc1cc(O)cc(C)c1C[C@H](N)C(=O)O; Tle = CC(C)(C)[C@H](N)C(=O)O

Conditions: CE-UV 200 nm; for BenchTop Obtained Concentration, Mean ± SD / BenchTop Obtained Concentration, %: after 6 h at room temperature; for BenchTop Obtained Concentration, Mean ± SD: ACN/0.1% TFA extraction; for BenchTop Obtained Concentration, Mean ± SD / Freeze and Thaw Obtained Concentration, Mean ± SD / Short Term Obtained Concentration, Mean ± SD: mean ± SD for five replicates; for BenchTop Obtained Concentration, % / Freeze and Thaw Obtained Concentration, % / Short Term Obtained Concentration, %: % of spiked concentration, five replicates; for Freeze and Thaw Obtained Concentration, % / Freeze and Thaw Obtained Concentration, Mean ± SD: after three freeze and thaw cycles at −20 °C; for Short Term Obtained Concentration, % / Short Term Obtained Concentration, Mean ± SD: at −25 °C for 30 days
Experimental: To ensure the applicability of the method for bioanalytical studies, stability tests were conducted under various storage and handling conditions.
The stock solutions of PK20 and [Ile9]PK20 compounds at a concentration of 10,000 ng/mL were prepared by dissolving the appropriate amounts of the substances in a 25 mM phosphate buffer at pH 2.5. Calibration solutions at specific concentrations were prepared on their basis. All solutions were stored at −15 °C. […] Calibration solutions at concentrations of 10, 50, 100, 500, 1000, and 5000 ng/mL were prepared in both water and serum by adding appropriate volumes of the stock solutions to serum samples free of the tested analytes.
To a 100 µL serum sample, 200 µL of acetonitrile (ACN) containing 0.1% trifluoroacetic acid (TFA) was added then immediately mixed by vortexing and centrifuged at 20,000× g for 4 min. The resulting supernatant was filtered using an ultrafiltration centrifuge (MWCO 30,000; Microcon YM-30, Millipore Corporation, Bradford, MA, USA) and then lyophilized. The dry residue was dissolved in 100 µL of deionized water and introduced into the capillary. The extraction procedure for PK20 and [Ile9]PK20 compounds was performed for three concentration ranges, namely 20 ng/mL, 500 ng/mL, and 5000 ng/mL.
Samples were introduced into the system hydrodynamically at a pressure of 2 psi for 6 s. Electrophoresis was performed at a voltage of 10 kV (normal polarity, anode on the inlet side of the capillary) at a temperature of 25 °C. Between subsequent analyses, the capillary was rinsed with water for 2 min and with BGE for 3 min. After each series of analyses, the working buffer was replaced to ensure repeatable separations.

Row | SMILES | BenchTop Obtained Concentration, Mean ± SD (spiked 50 ng/mL in serum) [ng/mL] | BenchTop Obtained Concentration, % (spiked 50 ng/mL in serum) [%] | Freeze and Thaw Obtained Concentration, % (spiked 50 ng/mL in serum) [%] | Freeze and Thaw Obtained Concentration, Mean ± SD (spiked 50 ng/mL in serum) [ng/mL] | Short Term Obtained Concentration, % (spiked 50 ng/mL in serum) [%] | Short Term Obtained Concentration, Mean ± SD (spiked 50 ng/mL in serum) [ng/mL] | BenchTop Obtained Concentration, Mean ± SD (spiked 500 ng/mL in serum) [ng/mL] | BenchTop Obtained Concentration, % (spiked 500 ng/mL in serum) [%] | Freeze and Thaw Obtained Concentration, % (spiked 500 ng/mL in serum) [%] | Freeze and Thaw Obtained Concentration, Mean ± SD (spiked 500 ng/mL in serum) [ng/mL] | Short Term Obtained Concentration, % (spiked 500 ng/mL in serum) [%] | Short Term Obtained Concentration, Mean ± SD (spiked 500 ng/mL in serum) [ng/mL]
1 | Cc1cc(O)cc(C)c1C[C@H](N)C(=O)N[C@H](CCCCN)C(=O)N[C@@H](Cc1ccccc1)C(=O)N[C@@H](Cc1ccccc1)C(=O)N[C@@H](CCCCN)C(=O)N[C@@H](CCCCN)C(=O)N1CCC[C@H]1C(=O)N[C@@H](Cc1ccccc1)C(=O)N[C@H](C(=O)N[C@@H](CC(C)C)C(=O)O)C(C)(C)C [PK20, H-Dmt-D-Lys-Phe-Phe-Lys-Lys-Pro-Phe-Tle-Leu-OH] (H-[Dmt][dK]FFKKPF[Tle]L-OH) | 23.92 ± 1.2 | 47.84 | 24.10 | 12.05 ± 1.5 | 95.04 | 47.52 ± 1.4 | 240.53 ± 0.9 | 48.11 | 25.24 | 126.20 ± 0.7 | 99.12 | 495.58 ± 1.1
2 | CC[C@H](C)[C@H](NC(=O)[C@H](Cc1ccccc1)NC(=O)[C@@H]1CCCN1C(=O)[C@H](CCCCN)NC(=O)[C@H](CCCCN)NC(=O)[C@H](Cc1ccccc1)NC(=O)[C@H](Cc1ccccc1)NC(=O)[C@@H](CCCCN)NC(=O)[C@@H](N)Cc1c(C)cc(O)cc1C)C(=O)N[C@@H](CC(C)C)C(=O)O [[Ile9]PK20, H-Dmt-D-Lys-Phe-Phe-Lys-Lys-Pro-Phe-Ile-Leu-OH] (H-[Dmt][dK]FFKKPFIL-OH) | 24.46 ± 1.1 | 48.92 | 25.44 | 12.72 ± 1.4 | 97.70 | 48.85 ± 1.2 | 246.15 ± 1.0 | 49.23 | 25.51 | 127.53 ± 1.2 | 99.56 | 497.80 ± 1.1
